From US20240226106A1, “INHIBITORS OF PLASMA KALLIKREIN” (SHIRE HUMAN GENETIC THERAPIES, INC., priority 2021, published 2024)
Like-named read-outs stand apart in the source and are kept apart here.

Experiments:
plasma kallikrein = target: T1, plasma kallikrein (Homo sapiens, UniProt P03952); test: Neat human plasma assay (fluorogenic peptide), contact pathway-activated plasma; format: biochemical; details: read-out: Human Plasma Assay: IC90
T1 construct: from tissue; host or cells: sodium citrate collected human plasma
Description: To analyze inhibition of plasma kallikrein in an ex vivo setting, the potency of compounds was measure in contact pathway-activated plasma assays. In a fluorogenic peptide substrate assay, test compounds dissolved in DMSO were added to sodium citrate collected human or rat plasma in a 96-well microplate. Alternatively, citrated plasma was collected from rats administered the compounds orally or by IV. 10 nM of human FXIIa (Enzyme Research Laboratories) diluted in PKa buffer (20 mM Tris-HCl, pH 7.5, 150 mM NaCl, 1 mM EDTA, 0.100 PEG-8000, and 0.1% Triton X-100) was added to the plasma, followed by the 100 μM of the profluorescent, synthetic plasma kallikrein substrate PFR-AMC (also diluted in PKa buffer). Final plasma concentration in the reaction was […]. Fluorescence was immediately monitored by excitation/emission wavelengths of 360 nm/480 nm respectively over a period of 5 minutes in a microplate reader. The resulting linear increase in fluorescence emission (reflecting PKa proteolysis of PFR-AMC substrate) was fit to extract a proteolytic rate (fluorescent units over time), and this rate was subsequently plotted against compound inhibitor concentration. Resulting plots were fit to a standard 4-parameter IC50/C90 equation to determine min/max values, IC50/90, and slope. All experimental steps were performed at room temperature.

[1] = target: human activated kallikrein enzyme (Homo sapiens, UniProt P03952); test: Inhibition of human activated plasma kallikrein, fluorogenic peptide substrate (PFR-AMC), 500 pM enzyme format; format: biochemical; details: 500 pM activated kallikrein, 30 min preincubation, 10 min reaction, room temperature, read-out: Primary Dose Response Assay: Average EC50
Method in brief: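 Enzyme at 500 pM with […] PFR-AMC in 20 mM Tris pH 7.5, 1 mM EDTA, 150 mM NaCl, 0.1% PEG-400, 0.1% Triton X-100. Inhibitor preincubated 30 min, then 10 min reaction at room temperature; AMC fluorescence read at 380 nm excitation/460 nm emission.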

[2] = citrated human plasma, 10 nM human FXIIa activation, 100 μM PFR-AMC, room temperature

T1 sequence (P03952 391-638 limits assumed): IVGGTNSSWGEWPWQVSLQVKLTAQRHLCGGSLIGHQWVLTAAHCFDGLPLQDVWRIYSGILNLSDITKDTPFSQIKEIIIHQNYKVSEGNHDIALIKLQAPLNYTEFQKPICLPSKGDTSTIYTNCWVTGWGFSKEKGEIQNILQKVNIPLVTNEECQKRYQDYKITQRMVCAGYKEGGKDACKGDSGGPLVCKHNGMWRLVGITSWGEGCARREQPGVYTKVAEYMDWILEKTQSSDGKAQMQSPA
T1 sequence (P03952 20-390 partner limits assumed): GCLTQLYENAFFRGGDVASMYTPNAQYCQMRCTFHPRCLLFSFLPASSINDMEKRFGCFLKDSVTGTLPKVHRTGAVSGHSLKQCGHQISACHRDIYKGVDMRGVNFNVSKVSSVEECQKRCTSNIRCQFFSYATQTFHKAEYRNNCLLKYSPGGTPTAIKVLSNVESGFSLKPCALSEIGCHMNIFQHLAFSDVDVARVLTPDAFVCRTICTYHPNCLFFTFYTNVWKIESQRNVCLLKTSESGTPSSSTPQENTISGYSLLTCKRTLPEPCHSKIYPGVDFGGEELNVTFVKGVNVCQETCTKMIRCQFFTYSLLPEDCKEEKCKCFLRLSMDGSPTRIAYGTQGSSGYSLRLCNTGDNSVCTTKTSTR
Chain of human activated kallikrein enzyme (P03952 391-638 limits assumed): as the sequence (P03952 391-638 limits assumed) above
Chain of human activated kallikrein enzyme (P03952 20-390 partner limits assumed): as the sequence (P03952 20-390 partner limits assumed) above

With Cc1ccnc([C@H]2C[C@@H]2C(=O)Nc2cc(N(C)Cc3nc4cc(C5CC5)cc(N5CC(=O)N(C)C5=O)c4[nH]3)nc(C)n2)n1 [Example 86, (S,2S)—N-(6-(((5-cyclopropyl-7-(3-methyl-2,4-dioxoimidazolidin-1-yl)-1H-benzo[d]imidazol-2-yl)methyl)(methyl)amino)-2-methylpyrimidin-4-yl)-2-(4-methylpyrimidin-2-yl)cyclopropane-1-carboxamide] the IC90 (plasma kallikrein; [2]) was 500 to 5000 nM and the EC50 [1] was < 2.5 nM.

In the case of Cc1ccnc([C@H]2C[C@@H]2C(=O)Nc2nc(C)nc(OCc3cn4cc(C5CC5)nc(N5CC(=O)N(C)C5=O)c4n3)n2)n1 [Example 87, (1S,2S)—N-(4-((6-cyclopropyl-8-(3-methyl-2,4-dioxoimidazolidin-1-yl)imidazo[1,2-a]pyrazin-2-yl)methoxy)-6-methyl-1,3,5-triazin-2-yl)-2-(4-methylpyrimidin-2-yl)cyclopropane-1-carboxamide], the IC90 (plasma kallikrein; [2]) is reported as 500 to 5000 nM and the EC50 [1] is reported as < 2.5 nM.

In the case of Cc1ccnc([C@H]2C[C@@H]2C(=O)Nc2cc(N(C)Cc3cn4cc(C5CC5)cnc4n3)nc(C)n2)n1 [Example 90, (1S,2S)—N-(6-(((6-cyclopropylimidazo[1,2-a]pyrimidin-2-yl)methyl)(methyl)amino)-2-methylpyrimidin-4-yl)-2-(4-methylpyrimidin-2-yl)cyclopropane-1-carboxamide], the IC90 (plasma kallikrein; [2]) is reported as 5000 to 65000 nM and the EC50 [1] is reported as < 2.5 nM.

In the case of Cc1ccnc([C@H]2C[C@@H]2C(=O)Nc2cc(NCc3ccc4ncc(C5CC5)cc4c3)ncn2)n1 [Example 93, (1S,2S)—N-(6-(((3-cyclopropylquinolin-6-yl)methyl)amino)pyrimidin-4-yl)-2-(4-methylpyrimidin-2-yl)cyclopropane-1-carboxamide], the IC90 (plasma kallikrein; [2]) is reported as < 500 nM and the EC50 [1] is reported as < 2.5 nM.

In the case of Cc1ccnc([C@H]2C[C@@H]2C(=O)Nc2cc(OCc3cn4cc(C5CC5)cnc4n3)cnn2)n1 [Example 94, (1S,2S)—N-(5-((6-cyclopropylimidazo[1,2-a]pyrimidin-2-yl)methoxy)pyridazin-3-yl)-2-(4-methylpyrimidin-2-yl)cyclopropane-1-carboxamide], the IC90 (plasma kallikrein; [2]) is reported as < 500 nM and the EC50 [1] is reported as < 2.5 nM.

Cc1ccnc([C@H]2C[C@@H]2C(=O)Nc2cc(OCc3cn4nc(C5CC5)cc(N5CC(=O)N(C)C5=O)c4n3)cnn2)n1 [Example 97, (1S,2S)—N-(5-((6-cyclopropyl-8-(3-methyl-2,4-dioxoimidazolidin-1-yl)imidazo[1,2-b]pyridazin-2-yl)methoxy)pyridazin-3-yl)-2-(4-methylpyrimidin-2-yl)cyclopropane-1-carboxamide] was tested, and the IC90 (plasma kallikrein; [2]) was < 500 nM and the EC50 [1] was < 2.5 nM.

With Cc1ccnc([C@H]2C[C@@H]2C(=O)Nc2cc(NCc3cc(N4CC(=O)N(C)C4=O)c4ncc(C5CC5)cc4c3)ncn2)n1 [Example 98, (1S,2S)—N-(6-(((3-cyclopropyl-8-(3-methyl-2,4-dioxoimidazolidin-1-yl)quinolin-6-yl)methyl)amino)pyrimidin-4-yl)-2-(4-methylpyrimidin-2-yl)cyclopropane-1-carboxamide] the IC90 (plasma kallikrein; [2]) was < 500 nM and the EC50 [1] was < 2.5 nM.

Cc1ccnc([C@H]2C[C@@H]2C(=O)Nc2cc(NCc3cc4cc(C5CC5)cc(N5CC(=O)N(C)C5=O)n4n3)nc(C)n2)n1 [Example 99, (1S,2S)—N-(6-(((5-cyclopropyl-7-(3-methyl-2,4-dioxoimidazolidin-1-yl)pyrazolo[1,5-a]pyridin-2-yl)methyl)amino)-2-methylpyrimidin-4-yl)-2-(4-methylpyrimidin-2-yl)cyclopropane-1-carboxamide] was tested, and the IC90 (plasma kallikrein) was < 500 nM and the EC50 [1] was < 2.5 nM.

With Cc1ccnc([C@H]2C[C@@H]2C(=O)Nc2cc(OCc3cc4cc(C5CC5)cc(N5CC(=O)N(C)C5=O)n4n3)cnn2)n1 [Example 100, (1S,2S)—N-(5-((5-cyclopropyl-7-(3-methyl-2,4-dioxoimidazolidin-1-yl)pyrazolo[1,5-a]pyridin-2-yl)methoxy)pyridazin-3-yl)-2-(4-methylpyrimidin-2-yl)cyclopropane-1-carboxamide] the IC90 (plasma kallikrein) was < 500 nM and the EC50 [1] was < 2.5 nM.
